# Laboratory results taken from publication PMC9241695, “Selective Metal Chelation by a Thiosemicarbazone Derivative Interferes with Mitochondrial Respiration and Ribosome Biogenesis in Candida albicans” (Microbiology Spectrum, 2022).
# Like-named read-outs stand apart in the source and are kept apart here.
# Columns and labels:
# A. fumigatus AF293 = assay: Antifungal susceptibility testing, microbroth dilution MIC; assay type: cell-based; settings: Aspergillus fumigatus, read-out: MIC (μg/mL) against fungi AF293
# Text: (§1) Compound library. The thiosemicarbazone derivatives Triapine and COTI-2 were purchased from Med Chem Express (MCE). The other 87 thiosemicarbazones used in this study were previously synthesized by our collaborators (1, 2). Their structures are shown in Table 1 and Table S1 to help the reader clearly understand the relationship between structure and activity.
# (§2) Strains and culture conditions. Clinically derived C. albicans isolates, including G5, F5, and Gu5, were kindly provided by Professor Joachim Morschhäuser of the University of Würzburg. Other clinical C. albicans isolates were kindly donated by Professor Qingguo Qi of Shandong University and Qianfoshan Hospital of Shandong Province Other Candida strains were obtained from Jinan Central Hospital.
# (§3) The zap1 mutant and its complemented strain were kindly provided by Professor Aaron P. Mitchell of Carnegie Mellon University (3). The C. neoformans strains used in this study was kindly donated by Professor Guojian Liao of Southwest University and A. fumigatus strain used in this study was provided by Professor Ling Lu of Nanjing Normal University. […]
# (§4) Antifungal susceptibility testing. To determine in vitro antifungal activities, the microbroth dilution method was carried out in RPMI1640 medium according to the guidelines of the Clinical and Laboratory Standards Institute (4, 5). The initial concentration in RPMI1640 medium was 1 × 10^3 CFU/mL for the C. albicans and C. neoformans suspensions but 1 × 10^4 CFU/mL for A. fumigatus. The range of final drug concentrations was 0.0156–64 μg/mL. The plates were incubated at35°C for 24 […]
# (§5) h (for C. albicans, C. krusei, C. tropicalis, C. parapsilosis) or 48 h (for C. neoformans, A. fumigatus). The MIC was determined based on visible growth inhibition compared with the control. All experiments were performed in duplicate. […]
# A. fumigatus 1161 = assay: Microbroth dilution MIC80; assay type: cell-based; settings: Aspergillus fumigatus; A. fumigatus 1161; read-out: MIC80
# Text: as §1, §2
# as §3, with “University. Before in vitro and in vivo experiments, all C. albicans strains were grown on YPD agar plates. After culturing at 30°C for 24 h, colonies of each strain were cultured in liquid YPD medium at 30°C with continuous shaking” for “University.”
# as §4, §5
# C. neoformans H99 = assay: Antifungal susceptibility testing, microbroth dilution MIC; assay type: cell-based; settings: Cryptococcus neoformans, H99, 48 h, read-out: MIC (μg/mL) against fungi H99
# Text: as §1, §2, §3, §4, §5
# C. albicans SC5314 [1] = assay: as above; assay type: cell-based; settings: Candida albicans, SC5314, 24 h, read-out: MIC (μg/mL) against fungi SC5314
# Text: as §1, §2
# as §3, with “University. Before in vitro and in vivo experiments, all C. albicans strains were grown on YPD agar plates. After culturing at 30°C for 24 h, colonies of each strain were cultured in liquid YPD medium at 30°C with continuous shaking” for “University.”
# as §4, §5
# C. albicans SC5314 [2] = assay: qPCR of genes associated with ribosome biogenesis; assay type: cell-based, Candida albicans; settings: CPX 0.5 or 2 μg/mL 8 h; DFO 64 µg/mL 6 h; TPEN 0.05 or 0.2 μg/mL 6 h
# Experimental: Determination of SOD activity. SOD activity was measured using the Superoxide Dismutase Activity Assay Kit (Njjcbio, Nanjing, China) following the manufacturer's instructions. An overnight culture of C. albicans SC5314 was adjusted to 1 × 10^7 cells/mL with RPMI1640 medium and treated with 19ak at a final concentration of 0, 0.125, 0.25, 0.5, or 1 μg/mL for 6 h. After collection by centrifugation, the cells were broken by glass beads in extraction buffer and centrifuged at 4°C. The absorbance of the supernatant of each sample was measured with a microplate reader at450 nm.
# Determination of catalase (CAT) activity. CAT activity was measured by using a Catalase Assay Kit (Solarbio, Beijing, China) following the manufacturer's instructions. An overnight culture of C. albicans SC5314 was adjusted to 1 × 10^6 cells/mL with RPMI1640 medium and treated as described above for SOD activity.
# The decomposition of H2O2 is directly accompanied by a decrease in absorbance at 240 nm, and the difference in absorbance per unit time (ΔA240) is a measure of […]
# Quantitative real-time polymerase chain reaction (qPCR) analysis. C. albicans SC5314 cells (1 × 10^6 cells/mL) were incubated with or without 19ak (0.5,2 […]
# Total RNA was extracted using the hot phenol method, and the RNA quality was analyzed using a spectrophotometer (Eppendorf, Hamburg, Germany). The RNA was converted to cDNA using a cDNA Reverse
# Transcription kit (Accurate Biotechnology, Hunan, China). PCR detection based on SYBR Green was performed on an Eppendorf real-time PCR system (Eppendorf, […]
# Drug resistance study. Drug resistance studies were carried out by repeatedly treating C. albicans with an antifungal agent followed by MIC determination using […]
smiles,measurement,setting,value
"C[C@@H](c1ncncc1F)[C@](O)(Cn1cncn1)c1ccc(F)cc1F [VOR, voriconazole, reference compound]",MIC,"A. fumigatus AF293; AF293, standard strain of A. fumigatus, 48 h",0.25 µg/mL
same,MIC80,A. fumigatus 1161,0.25 µg/mL
COc1ccc(NC(=S)N/N=C(\C)c2ccccn2)cc1 [Compound 19s],MIC,C. neoformans H99,0.25 µg/mL
same,MIC,"A. fumigatus AF293; AF293, 48 h",8 µg/mL
same,MIC,C. albicans SC5314 [1],2 µg/mL
"CC(=O)N(O)CCCCCNC(=O)CCC(=O)N(O)CCCCCNC(=O)CCC(=O)N(O)CCCCCN [DFO, deferoxamine]",Expression of genes associated with ribosome biogenesis (qPCR),C. albicans SC5314 [2],minor effects
"Cc1cc(C2CCCCC2)n(O)c(=O)c1 [CPX, ciclopirox olamine]",Expression of genes associated with ribosome biogenesis (qPCR),C. albicans SC5314 [2],no obvious effect
